Assay results: patent US6221865A, “Inhibitors of protein isoprenyl transferases” (priority 1998, dated 2001)
Structures can show the parent of a compound that is named as a salt. Values belong to the compound of their own block, whether it stands above or below them.

Target: T1, protein farnesyltransferase (Rattus norvegicus, UniProt Q02293+Q04631)
T1 construct: The enzyme is purified according to Reiss, Y., et al., Cell, 62: 81-88 (1990), utilizing steps one through three; from tissue; host or cells: rat brain
T1 sequence (Q02293 whole entry, one chain of several): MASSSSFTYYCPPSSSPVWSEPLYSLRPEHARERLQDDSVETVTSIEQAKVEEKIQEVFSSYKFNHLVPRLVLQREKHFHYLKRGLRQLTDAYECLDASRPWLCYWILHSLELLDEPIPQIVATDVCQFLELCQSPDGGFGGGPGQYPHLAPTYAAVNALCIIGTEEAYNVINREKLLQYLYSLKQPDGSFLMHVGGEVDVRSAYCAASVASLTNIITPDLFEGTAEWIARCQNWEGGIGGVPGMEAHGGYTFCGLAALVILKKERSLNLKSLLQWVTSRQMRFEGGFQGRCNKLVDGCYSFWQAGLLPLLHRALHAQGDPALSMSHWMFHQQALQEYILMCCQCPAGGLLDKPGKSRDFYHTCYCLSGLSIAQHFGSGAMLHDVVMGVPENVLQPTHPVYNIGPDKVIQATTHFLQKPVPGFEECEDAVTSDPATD
Assay: Inhibition of farnesyltransferase (scintillation proximity assay, rat brain enzyme, biotin-K Ras B fragment substrate)
Assay type: biochemical
Details: for % inhibition of farnesyltransferase at 1 × 10^-7 M: 1 × 10^-7 M (Table 3); for % inhibition of farnesyltransferase at 1 × 10^-5 M: 1 × 10^-5 M (Table 1); for inhibition at 1 µM: read-out: % inhibition of farnesyltransferase at 1 × 10^-6 M; for inhibition at 1 µM / % inhibition of farnesyltransferase at 1 × 10^-6 M: 1 × 10^-6 M (Table 2); for inhibition at 0.1 µM: read-out: % inhibition at 0.1 μM (*), Table 6, * = 0.1 μM (footnote), title prints 0.1 mM; for % inhibition of farnesyltransferase at 1 × 10^-8 M: 1 × 10^-8 M (Table 4); for inhibition at 0.01 µM: read-out: % inhibition at 0.01 μM (**), Table 6, ** = 0.01 μM (footnote), title prints 0.01 mM
Method in brief: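 Enzyme from rat brain, partly purified (steps one to three), assayed by SPA kit using 0.1 mM final biotin-K Ras B peptide as prenyl acceptor rather than biotin-lamin. Activity given as percent inhibition.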

SMILES: CSCC[C@H](NC(=O)c1ccc(COCc2ccc(-c3ccc(F)cc3)o2)cc1-c1ccc(F)cc1Cl)C(=O)[O-].[Li+] [Example 869]
- % inhibition of farnesyltransferase at 1 × 10^-7 M: 92%

- % inhibition of farnesyltransferase at 1 × 10^-5 M: 86%
SMILES: CSCC[C@H](NC(=O)c1ccc(CNc2cc[nH]n2)cc1-c1ccccc1)C(=O)O [Example 370]

- inhibition at 1 µM: 98%
SMILES: CSCC[C@H](NC(=O)c1ccc(CN(C)C(CC2CCCCC2)C(=O)N2CCCCC2)cc1-c1ccccc1C)C(=O)O (stereo partly shown) [Example 301]

- inhibition at 0.1 µM: 86%
SMILES: CSCC[C@H](NC(=O)c1ccc(Cc2nnn(Cc3ccccc3)n2)cc1-c1ccccc1C)C(=O)O [Example 1101, N-[4-(2-benzyltetrazol-5-ylmethyl)-2-(2-methylphenyl)benzoyl]methionine]

- % inhibition of farnesyltransferase at 1 × 10^-8 M: 79%
SMILES: CSCC[C@H](NC(=O)c1ccc(CN(C(C)=O)C(CC2CCCCC2)CC2CCCCC2)cc1-c1ccccc1C)C(=O)O [Example 909]

SMILES: CSCC[C@H](NC(=O)c1ccc(COCc2cnc(-c3ccc(Cl)cc3)s2)cc1-c1ccccc1C)C(=O)[O-].[Li+] [Example 901]
- % inhibition of farnesyltransferase at 1 × 10^-8 M: 84%

- inhibition at 0.01 µM: 63%
SMILES: CSCC[C@H](NC(=O)c1ccc(CN2CCSC[C@H]2COCC2CCCCC2)cc1-c1ccccc1C)C(=O)O [Example 1111, N-[4-(3(R)-cyclohexylmethoxymethylthiomorpholin-4-ylmethyl)-2-(2-methylphenyl)benzoyl]methionine]

- % inhibition of farnesyltransferase at 1 × 10^-6 M: 99%
SMILES: CSCC[C@H](NC(=O)c1ccc(CN[C@H](CO)CC2CCCCC2)cc1-c1ccccc1C)C(=O)O [Example 617]

- % inhibition of farnesyltransferase at 1 × 10^-6 M: 95%
SMILES: CSCC[C@H](NC(=O)c1ccc(CNc2ccc(N3CCCCC3)cc2)cc1-c1ccccc1C)C(=O)O [Example 862]

- % inhibition of farnesyltransferase at 1 × 10^-7 M: 78%
SMILES: CCCCN(CCCC)Cc1ccc(C(=O)N[C@@H](CCSC)C(=O)O)c(-c2ccccc2C)c1 [Example 917]

- inhibition at 1 µM: 99%
SMILES: CSCC[C@H](NC(=O)c1ccc(CN2C(=O)OC[C@@H]2CC2CCCCC2)cc1-c1ccccc1C)C(=O)O [Example 349, [4-(5-cyclohexylmethyloxazolid-2-on-1-ylmethyl)-2-(2-methylphenyl)benzoyl]methionine]

- % inhibition of farnesyltransferase at 1 × 10^-6 M: 95%
SMILES: CSCC[C@H](NC(=O)c1ccc(CN[C@H](CO)Cc2ccccc2)cc1-c1ccccc1C)C(=O)O [Example 727]

SMILES: CSCC[C@H](NC(=O)c1ccc(COC2CCC(NC(=O)OC(C)(C)C)CC2)cc1-c1ccccc1C)C(=O)[O-].[Li+] (stereo partly shown) [Example 817]
- % inhibition of farnesyltransferase at 1 × 10^-7 M: 60%

- % inhibition of farnesyltransferase at 1 × 10^-5 M: 76%
SMILES: CSCC[C@H](NC(=O)c1ccc(CNc2cccc(O)c2)cc1-c1ccccc1)C(=O)O [Example 676]

SMILES: CSCC[C@H](NC(=O)c1ccc(CN2CCN(C(=O)OC(C)(C)C)CC2)cc1-c1ccccc1C)C(=O)O [Example 866, N-[4-(4-t-butoxycarbonylpiperazin-1-ylmethyl)-2-(2-methylphenyl)benzoyl]methionine]
- inhibition at 1 µM: 62%

- % inhibition of farnesyltransferase at 1 × 10^-6 M: 96%
SMILES: CSCC[C@H](NC(=O)c1ccc(COCc2cccs2)cc1-c1ccccc1C)C(=O)[O-].[Li+] [Example 273]

- % inhibition of farnesyltransferase at 1 × 10^-5 M: 87%
SMILES: CSCC[C@H](NC(=O)c1ccc(CNCCc2cccs2)cc1-c1ccccc1)C(=O)O [Example 369]

- inhibition at 1 µM: 82%
SMILES: CSCC[C@H](NC(=O)c1ccc(CNC(C)(C)Cc2ccccc2)cc1-c1ccccc1C)C(=O)O [Example 307]

- % inhibition of farnesyltransferase at 1 × 10^-6 M: 26%
SMILES: CSCC[C@H](NC(=O)c1ccc(NC(=O)OCCCl)cc1-c1ccccc1)C(=O)O [Example 979]

- % inhibition of farnesyltransferase at 1 × 10^-6 M: 95%
SMILES: CSCC[C@H](NC(=O)c1ccc(CN(Cc2cncs2)S(C)(=O)=O)cc1-c1ccccc1C)C(=O)O [Example 878]

- % inhibition of farnesyltransferase at 1 × 10^-5 M: 83%
SMILES: CSCC[C@H](NC(=O)c1ccc(CNCCN2CCCCC2)cc1-c1ccccc1)C(=O)O [Example 366]

- inhibition at 0.01 µM: 88%
SMILES: CSCC[C@H](NC(=O)c1ccc(CN2OCCC2COC2CCCCC2)cc1-c1ccccc1C)C(=O)O (stereo partly shown) [Example 1130, N-[4-(3-cyclohexyloxymethylisoxazolidin-2-ylmethyl)-2-(2-methylphenyl)benzoyl]methionine]

- % inhibition of farnesyltransferase at 1 × 10^-6 M: 85%
SMILES: CSCC[C@H](NC(=O)c1ccc(NC(=O)OCc2cncs2)cc1-c1ccccc1C)C(=O)O [Example 902]

SMILES: CSCC[C@H](NC(=O)c1ccc(COCc2cccc3ccccc23)cc1-c1ccccc1C)C(=O)[O-].[Li+] [Example 584]
- % inhibition of farnesyltransferase at 1 × 10^-7 M: 96%

- % inhibition of farnesyltransferase at 1 × 10^-8 M: 85%
SMILES: CSCC[C@H](NC(=O)c1ccc(CN(Cc2ccccc2)c2cccc(Cl)c2)cc1-c1ccccc1C)C(=O)O [Example 847]

SMILES: CSCC[C@H](NC(=O)c1ccc(COCc2cccc(Cl)c2)cc1-c1ccccc1C)C(=O)[O-].[Li+] [Example 934]
- % inhibition of farnesyltransferase at 1 × 10^-8 M: 71%

- inhibition at 0.1 µM: 92%
SMILES: CSCC[C@H](NC(=O)c1ccc(CN2CCC[C@H]2CN2CCCCC2)cc1-c1ccccc1C)C(=O)O [Example 1125, N-[4-(2-piperidin-1-ylmethylpyrrolidin-1-ylmethyl)-2-(2-methylphenyl)benzoyl]methionine]

SMILES: CSCC[C@H](NC(=O)c1ccc(COCc2ccc(-c3ccc(SC)cc3)o2)cc1-c1ccccc1C)C(=O)[O-].[Li+] [Example 447]
- % inhibition of farnesyltransferase at 1 × 10^-7 M: 91%

- % inhibition of farnesyltransferase at 1 × 10^-7 M: 81%
SMILES: CSCC[C@H](NC(=O)c1ccc(COc2cccc3ccccc23)cc1-c1ccccc1C)C(=O)O [Example 574]

SMILES: CSCC[C@H](NC(=O)c1ccc(CC(CCC2CCCCC2)C(=O)OC(C)(C)C)cc1-c1ccccc1C)C(=O)O (stereo partly shown) [Example 1301, N-[4-(2-(2-cyclohexylethyl)t-butylpropion-3-yl)-2-(2-methylphenyl)benzoyl]methionine Lithium Salt]
- inhibition at 0.1 µM: 97%

- % inhibition of farnesyltransferase at 1 × 10^-7 M: 93%
SMILES: CSCC[C@H](NC(=O)c1ccc(CSc2nc3ccccc3c(=O)[nH]2)cc1-c1ccccc1C)C(=O)O [Example 745]

- % inhibition of farnesyltransferase at 1 × 10^-8 M: 92%
SMILES: CSCC[C@H](NC(=O)c1ccc(CN[C@@H](CC2CCCCC2)C(=O)N2CCCCC2)cc1-c1ccccc1C)C(=O)O [Example 887]

- % inhibition of farnesyltransferase at 1 × 10^-5 M: 74%
SMILES: CSCC[C@H](NC(=O)c1ccc(CNc2ccc(C3CCCCC3)cc2)cc1-c1ccccc1)C(=O)O [Example 699]

- inhibition at 0.01 µM: 84%
SMILES: CSCC[C@H](NC(=O)c1ccc(CN2CCC[C@@H]2COCC2CCCCC2)cc1-c1ccccc1C)C(=O)O [Example 1119, N-[4-(2-cyclohexylmethoxymethylpyrrolidin-1-ylmethyl)-2-(2-methylphenyl)benzoyl]methionine]

- inhibition at 0.01 µM: 84%
SMILES: CSCC[C@H](NC(=O)c1ccc(Cc2nnn(CC3CCCCC3)n2)cc1-c1ccccc1C)C(=O)O [Example 1102, N-[4-(2cyclohexylmethyltetrazol-5-ylmethyl)-2-(2-methylphenyl)benzoyl]methionine]

- % inhibition of farnesyltransferase at 1 × 10^-6 M: 95%
SMILES: CSCC[C@H](NC(=O)c1ccc(NCC(CO)CC2CCCCC2)cc1-c1ccccc1C)C(=O)O (stereo partly shown) [Example 479]

SMILES: CSCC[C@H](NC(=O)c1ccc(COCCc2ccc(-c3ccc(F)cc3)o2)cc1-c1ccccc1C)C(=O)[O-].[Li+] [Example 535]
- % inhibition of farnesyltransferase at 1 × 10^-7 M: 89%
